Patent US20120270929A1, “MODULATION OF TTC39 EXPRESSION TO INCREASE HDL” (ISIS Pharmaceuticals, Inc., priority 2009, published 2012)
Oligonucleotides are written 5' to 3', each unit as a sugar letter and its base; * is a phosphorothioate linkage, no mark a phosphodiester; rarer units and linkages stand in square brackets, end groups in braces. Plain capitals give the bases only. e = 2'-O-(2-methoxyethyl) (MOE); [5mC] = 5-methylcytosine; d = 2'-deoxy (DNA)

Experiments:
[1] = system: murine TTC39A mRNA; assay: Antisense inhibition of mouse TTC39A in b.END cells, single dose; assay type: cell-based; conditions: 70 nM, cytofectin, ~24 h, vs untreated control
Description: Antisense oligonucleotides were designed targeting a TTC39A nucleic acid and were tested for their effects on TTC39A mRNA in vitro. Cultured b.END cells at a density of 4,000 cells per well were transfected using cytofectin reagent with 70 nM antisense oligonucleotide. After a treatment period of approximately 24 hours, RNA was isolated from the cells and TTC39A mRNA levels were measured by quantitative real-time PCR. Mouse primer probe set RTS3262 (forward sequence TGTGCGTCATGCTGTTGCT, designated herein as SEQ ID NO: 113; reverse sequence […], designated herein as SEQ ID NO: 114; probe sequence […], designated herein as SEQ ID NO: 115). TTC39A mRNA levels were adjusted according to total RNA content, as measured by RIBOGREEN®. Results are presented as percent inhibition of TTC39A, relative to untreated control cells.
The chimeric antisense oligonucleotides targeting TTC39A were designed as 5-10-5 MOE gapmers. The gapmers are 20 nucleotides in length, wherein the central gap segment is comprised of ten 2′-deoxynucleotides and is flanked on both sides (in the 5′ and 3′ directions) by wings comprising five nucleotides each. Each nucleotide in the 5′ wing segment and each nucleotide in the 3′ wing segment has a 2′-MOE modification. The internucleoside linkages throughout each gapmer are phosphorothioate (P═S) linkages. All cytosine residues throughout each gapmer are 5-methylcytosines. “Mouse Target start site” indicates the 5′-most nucleotide to which the gapmer is targeted in a mouse nucleic acid sequence.

[2] = system: murine TTC39A mRNA; assay: Dose-dependent antisense inhibition of murine TTC39A in b.END cells; assay type: cell-based, mouse; conditions: ~16 h; for IC50: cytofectin
Description: Cells were plated at a density of 3,500 cells per well and transfected using cytofectin reagent with 4.375 nM, 8.75 nM, 17.5 nM, 35 nM, 70 nM, and 140 nM concentrations of antisense oligonucleotide, as specified in Table 28. After a treatment period of approximately 16 hours, RNA was isolated from the cells and TTC39A mRNA levels were measured by quantitative real-time PCR. Murine primer probe set RTS3262 was used to measure mRNA levels. TTC39A mRNA levels were adjusted according to total RNA content, as measured by RIBOGREEN®. Results are presented as percent inhibition of TTC39A, relative to untreated control cells.

Sequence	% inhibition of murine TTC39A mRNA [1]	percent inhibition of TTC39A mRNA ([2]; 4.375 nM)	percent inhibition of TTC39A mRNA ([2]; 8.75 nM)	percent inhibition of TTC39A mRNA ([2]; 17.5 nM)	percent inhibition of TTC39A mRNA ([2]; 35.0 nM)	percent inhibition of TTC39A mRNA ([2]; 70.0 nM)	percent inhibition of TTC39A mRNA ([2]; 140.0 nM)	IC50 [2]
GCATGTAGAGAACTTCCAGG (eG*e[5mC]*eA*eT*eG*dT*dA*dG*dA*dG*dA*dA*d[5mC]*dT*dT*e[5mC]*e[5mC]*eA*eG*eG; antisense) [ISIS 474382]	95%	0%	10%	24%	41%	68%	80%	0.042 µM
GCCTCAGAATCCTGGTGGGA (eG*e[5mC]*e[5mC]*eT*e[5mC]*dA*dG*dA*dA*dT*d[5mC]*d[5mC]*dT*dG*dG*eT*eG*eG*eG*eA; antisense) [ISIS 474437]	94%	5%	6%	26%	36%	62%	82%	0.049 µM
TCCATGGAGTAGTTCTTGTA (eT*e[5mC]*e[5mC]*eA*eT*dG*dG*dA*dG*dT*dA*dG*dT*dT*d[5mC]*eT*eT*eG*eT*eA; antisense) [ISIS 474452]	92%	0%	9%	36%	46%	61%	86%	0.041 µM
TCCTTGCTCAGCAGGTCGGC (eT*e[5mC]*e[5mC]*eT*eT*dG*d[5mC]*dT*d[5mC]*dA*dG*d[5mC]*dA*dG*dG*eT*e[5mC]*eG*eG*e[5mC]; antisense) [ISIS 474366]	93%	0%	0%	23%	45%	64%	80%	0.043 µM
TCGGTGCCTCTGACACAGCG (eT*e[5mC]*eG*eG*eT*dG*d[5mC]*d[5mC]*dT*d[5mC]*dT*dG*dA*d[5mC]*dA*e[5mC]*eA*eG*e[5mC]*eG; antisense) [ISIS 474474]	97%	0%	5%	27%	56%	72%	87%	0.033 µM
TGCACTGGTCCAGGGCCTCA (eT*eG*e[5mC]*eA*e[5mC]*dT*dG*dG*dT*d[5mC]*d[5mC]*dA*dG*dG*dG*e[5mC]*e[5mC]*eT*e[5mC]*eA; antisense) [ISIS 474351]	94%	6%	0%	8%	48%	66%	84%	0.044 µM
